Reference: a compilation of properties of binary mixtures (doi:10.1007/s10953-013-9990-0)

Assay: xn = mol fraction of the nth substance listed
Conditions: 101 kPa

CCCO + CCCC[n+]1cccc(C)c1.O=S(=O)([N-]S(=O)(=O)C(F)(F)F)C(F)(F)F
x1 = 1
Conditions	speed of sound [m/s]
298.15 K	1206.4
303.15 K	1189.3
308.15 K	1172.3

CCO + CCCC[n+]1cccc(C)c1.O=S(=O)([N-]S(=O)(=O)C(F)(F)F)C(F)(F)F
x1 = 1
Conditions	speed of sound [m/s]
298.15 K	1143.6
303.15 K	1126.7
308.15 K	1109.8

CCCC[n+]1cccc(C)c1.O=S(=O)([N-]S(=O)(=O)C(F)(F)F)C(F)(F)F + CCCO
speed of sound [m/s]
Conditions	298.15 K	303.15 K	308.15 K
x2 = 0	1248.3	1237.1	1226
x2 = 0.0431	–	1235.4	1224.3
x2 = 0.0889	1244.5	1233.4	1222.3
x2 = 0.1564	1241.8	–	1219.1
x2 = 0.2913	–	1223.2	1211.8
x2 = 0.3788	1229.5	1217.9	1206.3
x2 = 0.5665	1215.6	1203.5	1191.5
x2 = 0.5901	–	1201.4	1189.3
x2 = 0.6913	1204	1191.4	–
x2 = 0.8006	1194.1	1180.8	1167.7
x2 = 0.8947	1189.3	1174.9	–
x2 = 0.9467	1193.4	1178	1162.7

CC(C)O + CCCC[n+]1cccc(C)c1.O=S(=O)([N-]S(=O)(=O)C(F)(F)F)C(F)(F)F
x1 = 1
Conditions	speed of sound [m/s]
298.15 K	1139.6
303.15 K	1122

CCCC[N+]1(C)CCCC1.O=S(=O)([N-]S(=O)(=O)C(F)(F)F)C(F)(F)F + CCO
speed of sound [m/s]
Conditions	298.15 K	303.15 K	308.15 K
x2 = 0	1269.3	1258.2	1247.1
x2 = 0.0586	1266.6	1255.3	1244.2
x2 = 0.1981	1258.6	1247.2	1235.9
x2 = 0.2834	1252.8	1241.3	1229.9
x2 = 0.4449	1238.4	1226.6	1215
x2 = 0.5133	1230.8	1218.9	1207.1
x2 = 0.6012	1219.2	–	–
x2 = 0.7078	–	1189.2	1176.8
x2 = 0.7929	1184.8	1171.6	–
x2 = 0.8997	1158.2	1144	1129.8
x2 = 0.9492	–	1133.2	–

CC(C)O + CCCC[N+]1(C)CCCC1.O=S(=O)([N-]S(=O)(=O)C(F)(F)F)C(F)(F)F
x1 = 1
Conditions	speed of sound [m/s]
298.15 K	1139.6
303.15 K	1122
308.15 K	1104.4

CCO + CCCC[N+]1(C)CCCC1.O=S(=O)([N-]S(=O)(=O)C(F)(F)F)C(F)(F)F
x1 = 1
Conditions	speed of sound [m/s]
303.15 K	1126.7
308.15 K	1109.8

CCCC[n+]1cccc(C)c1.O=S(=O)([N-]S(=O)(=O)C(F)(F)F)C(F)(F)F + CC(C)O
speed of sound [m/s]
Conditions	298.15 K	303.15 K	308.15 K
x2 = 0	1248.3	1237.1	1226
x2 = 0.0534	1245.3	1234.1	1222.2
x2 = 0.1034	–	1231	1219.8
x2 = 0.1577	–	1227.4	1216.1
x2 = 0.1756	1237	1225.7	1214.3
x2 = 0.3062	1227.4	1215.8	1204.2
x2 = 0.3957	1220.8	1209	1197.1
x2 = 0.51	1208.6	1197.3	1185.3
x2 = 0.6002	1197.7	1185.3	1173
x2 = 0.7046	1182.1	1169.3	1156.5
x2 = 0.8006	–	–	1135.4
x2 = 0.8988	–	1129.5	1115.2

CCCC[n+]1cccc(C)c1.O=S(=O)([N-]S(=O)(=O)C(F)(F)F)C(F)(F)F + CCO
speed of sound [m/s]
Conditions	298.15 K	303.15 K	308.15 K
x2 = 0	–	1237.1	–
x2 = 0.0533	–	–	1223.8
x2 = 0.0924	1244.5	1233.1	–
x2 = 0.1963	1239.3	1227.9	1216.6
x2 = 0.3011	1233.2	1221.7	1210.3
x2 = 0.3959	1226.5	1214.9	1203.4
x2 = 0.4982	–	1206	1194.3
x2 = 0.599	–	–	1183.2
x2 = 0.6829	1195.9	1183.6	1171.3
x2 = 0.7355	1187.7	1175.2	–
x2 = 0.8008	1176.4	1163.2	1150.3
x2 = 0.8991	1156.9	1142.8	1128.7
x2 = 0.9436	1149.9	1134.8	1119.9

CCCC[N+]1(C)CCCC1.O=S(=O)([N-]S(=O)(=O)C(F)(F)F)C(F)(F)F + CCCO
speed of sound [m/s]
Conditions	x2 = 0	x2 = 0.0545	x2 = 0.0931	x2 = 0.1903	x2 = 0.2935	x2 = 0.3972	x2 = 0.5916	x2 = 0.7837	x2 = 0.8975	x2 = 0.9472
298.15 K	1269.3	1267	1264.9	1259.7	–	1246	1230	1201.2	1190.9	–
303.15 K	1258.1	–	1253.5	1248.2	1241.7	1234.2	–	1188	1176.4	1178
308.15 K	1247.1	1244.4	1242.3	1236.9	1230.2	1222.5	1206	1175	1162	1162.7

CCCC[N+]1(C)CCCC1.O=S(=O)([N-]S(=O)(=O)C(F)(F)F)C(F)(F)F + CC(C)O
speed of sound [m/s]
Conditions	298.15 K	303.15 K	308.15 K
x2 = 0	1269.3	–	1247.1
x2 = 0.0593	1264.9	1253.7	1243.5
x2 = 0.1319	–	1248.7	1237.4
x2 = 0.2344	1250.8	1239.1	–
x2 = 0.3929	1234.8	1222.9	1211.2
x2 = 0.4935	1222.3	1210.2	1198.1
x2 = 0.5927	1207.5	–	1182.9
x2 = 0.718	1184.1	1171.2	1158.4
x2 = 0.8015	1165.1	1151.8	1138.5
x2 = 0.9018	1143	1129.1	1115.9
x2 = 0.9491	1138.1	1122.5	1106.8

CCCO + CCCC[N+]1(C)CCCC1.O=S(=O)([N-]S(=O)(=O)C(F)(F)F)C(F)(F)F
x1 = 1
Conditions	speed of sound [m/s]
298.15 K	1206.4
303.15 K	1189.3
